Here are results for 61 compounds from the Kinase Knowledgebase extract (Sharma et al. 2016).

The assay deals with EGFR (human) (UniProt P00533).

Bounds are passed on as bounds.

Chain of EGFR (human) (P00533 whole entry, looked up): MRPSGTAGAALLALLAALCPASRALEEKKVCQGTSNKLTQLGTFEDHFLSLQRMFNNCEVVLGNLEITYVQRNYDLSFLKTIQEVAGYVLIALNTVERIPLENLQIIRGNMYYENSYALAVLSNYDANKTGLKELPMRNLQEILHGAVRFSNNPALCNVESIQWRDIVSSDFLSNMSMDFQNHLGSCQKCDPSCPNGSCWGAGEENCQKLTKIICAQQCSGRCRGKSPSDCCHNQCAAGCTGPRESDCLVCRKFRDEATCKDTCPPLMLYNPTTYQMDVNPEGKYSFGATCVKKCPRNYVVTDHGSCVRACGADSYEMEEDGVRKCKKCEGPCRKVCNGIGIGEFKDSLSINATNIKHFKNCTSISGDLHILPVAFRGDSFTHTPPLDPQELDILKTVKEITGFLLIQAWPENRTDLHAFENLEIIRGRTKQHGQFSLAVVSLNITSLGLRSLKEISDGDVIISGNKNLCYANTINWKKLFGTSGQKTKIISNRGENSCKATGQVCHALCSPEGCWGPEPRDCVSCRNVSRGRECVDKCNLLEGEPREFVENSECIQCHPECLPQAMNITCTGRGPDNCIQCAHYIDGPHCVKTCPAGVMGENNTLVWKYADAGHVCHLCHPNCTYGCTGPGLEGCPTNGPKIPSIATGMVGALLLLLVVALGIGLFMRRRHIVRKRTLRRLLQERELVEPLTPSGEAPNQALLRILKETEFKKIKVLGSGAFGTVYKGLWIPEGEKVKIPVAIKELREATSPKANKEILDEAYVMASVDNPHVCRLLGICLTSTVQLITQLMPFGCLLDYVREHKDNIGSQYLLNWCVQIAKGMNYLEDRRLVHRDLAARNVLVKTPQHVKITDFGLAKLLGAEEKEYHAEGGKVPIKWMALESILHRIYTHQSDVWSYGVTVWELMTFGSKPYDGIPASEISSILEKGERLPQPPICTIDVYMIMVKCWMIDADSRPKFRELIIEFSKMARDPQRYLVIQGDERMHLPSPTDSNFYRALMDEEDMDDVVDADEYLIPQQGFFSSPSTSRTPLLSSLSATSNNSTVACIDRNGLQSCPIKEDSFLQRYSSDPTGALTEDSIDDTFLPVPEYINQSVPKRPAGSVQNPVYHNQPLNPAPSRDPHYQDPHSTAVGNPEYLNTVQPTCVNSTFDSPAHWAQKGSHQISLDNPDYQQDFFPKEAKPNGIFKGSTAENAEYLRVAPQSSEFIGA

A word on the IC50: it is the point on the concentration scale where inhibition reaches its midpoint. A low value points to greater potency. As for `CC(C)c1nc(-c2cccc(NS(=O)(=O)c3ccccc3)c2)c(-c2ccnc(Nc3ccc(F)c(N4CCN(CCS(C)(=O)=O)CC4)c3)n2)s1`, the IC50 fell in the range of 100 to 1000 nM.

Compound `COc1cc(N2CCN(CCF)CC2)ccc1Nc1nccc(-c2sc(C(C)C)nc2-c2cccc(NS(=O)(=O)c3c(F)cccc3F)c2)n1` yielded an IC50 of 100 to 1000 nM.

The compound `CC(C)c1nc(-c2ccc(F)c(NS(=O)(=O)c3c(F)cccc3F)c2)c(-c2ccnc(Nc3ccc(N4CCN5CCOC[C@H]5C4)nc3)n2)s1` gave an IC50 of 100 to 1000 nM.

Consider `COc1cc(CCN2CCCCC2)c(F)cc1Nc1nccc(-c2sc(C(C)C)nc2-c2cccc(NS(=O)(=O)c3c(F)cccc3F)c2)n1`, for which the IC50 was in the range of 100 to 1000 nM.

As to `COc1cc(N2CCC(N3CCN(CCS(C)(=O)=O)CC3)CC2)ccc1Nc1nccc(-c2sc(C(C)C)nc2-c2cccc(NS(=O)(=O)c3c(F)cccc3F)c2)n1`, the IC50 was below 100 nM.

As for `COc1cc(N2CCC3(CC2)CCN(S(C)(=O)=O)CC3)c(C)cc1Nc1nccc(-c2sc(C(C)C)nc2-c2cccc(NS(=O)(=O)c3c(F)cccc3F)c2F)n1`, the IC50 lay in the range of 100 to 1000 nM.

For `COc1cc(N2CCN(CCS(C)(=O)=O)CC2)c(C)cc1Nc1nccc(-c2sc(C(C)C)nc2-c2cccc(NS(=O)(=O)c3cccnc3)c2)n1`, the IC50 was in the range of 100 to 1000 nM.

`COc1ccc(S(C)(=O)=O)cc1Nc1nccc(-c2sc(C(C)C)nc2-c2cccc(NS(=O)(=O)c3c(F)cccc3F)c2F)n1`: the IC50 lay within 100 to 1000 nM.

`CC(C)c1nc(-c2cccc(NS(=O)(=O)c3c(F)cccc3F)c2)c(-c2ccnc(Nc3ccc(N4CCCN(CCS(C)(=O)=O)CC4)nc3)n2)s1` registered an IC50 of 100 to 1000 nM.

For the compound `CC(=O)N1CCN(c2ccc(Nc3nccc(-c4sc(C(C)C)nc4-c4cccc(NS(=O)(=O)C5CCCCC5)c4)n3)cn2)CC1`, the IC50 was 100 to 1000 nM.

The compound `Cc1ccc(-c2nc(C(C)C)sc2-c2ccnc(Nc3ccc(N4CCOCC4)nc3)n2)cc1NS(=O)(=O)c1c(F)cccc1F` showed an IC50 of 100 to 1000 nM.

For the compound `COc1cc(N2CCN(CCS(C)(=O)=O)CC2)c(C)cc1Nc1nccc(-c2sc(C3CCOCC3)nc2-c2cccc(NS(=O)(=O)c3c(F)cccc3F)c2F)n1`, the IC50 is below 100 nM.

Turning to `O=S(=O)(Nc1cc(-c2nc(N3CCOCC3)sc2-c2ccnc(Nc3ccc4c(c3)OCCO4)n2)ccc1F)c1c(F)cccc1F`, the IC50 lay within 100 to 1000 nM.

In turn, `COc1cc(N2CCN(CCS(C)(=O)=O)CC2)c(C)cc1Nc1nccc(-c2sc(C3CCOCC3)nc2-c2cccc(NS(=O)(=O)c3c(F)cccc3F)c2)n1` registered an IC50 below 100 nM.

`CCc1nc(-c2cccc(CNS(=O)(=O)c3ccccc3)c2)c(-c2ccnc(Nc3ccc(N4CCN(CCS(C)(=O)=O)CC4)c(F)c3)n2)s1` registered an IC50 of 100 to 1000 nM.

Compound `COc1cc2c(cc1Nc1nccc(-c3sc(C(C)C)nc3-c3cccc(NS(=O)(=O)c4c(F)cccc4F)c3)n1)N(C(=O)CN(C)C)CC2` displayed an IC50 of 100 to 1000 nM.

The compound `CC(=O)N1CCN(c2ccc(Nc3nccc(-c4sc(C(C)C)nc4-c4cccc(NS(=O)(=O)c5cc(F)ccc5F)c4)n3)cn2)CC1` displayed an IC50 of 100 to 1000 nM.

In turn, `COc1cc(OCCN2CCOCC2)c(C)cc1Nc1nccc(-c2sc(C(C)C)nc2-c2cccc(NS(=O)(=O)c3c(F)cccc3F)c2F)n1` showed an IC50 of 100 to 1000 nM.

For the compound `CC(C)c1nc(-c2cccc(NS(=O)(=O)c3c(F)cccc3F)c2)c(-c2ccnc(Nc3ccc(N4CCN(C(C)C)CC4)cc3O)n2)s1`, the 50% inhibitory concentration (IC50) fell in the range of 100 to 1000 nM.

In turn, `COc1ccc(Nc2nccc(-c3sc(C(C)C)nc3-c3cccc(NS(=O)(=O)c4c(F)cccc4F)c3)n2)cc1N(C)C` came in with an IC50 below 100 nM.

`O=S(=O)(Nc1cc(-c2nc(N3CCOCC3)sc2-c2ccnc(Nc3ccc(N4CCOCC4)nc3)n2)ccc1F)c1c(F)cccc1F` showed an IC50 of 100 to 1000 nM.

On to `CC(C)c1nc(-c2cccc(NS(=O)(=O)c3c(F)cccc3F)c2)c(-c2ccnc(Nc3ccc(N4CCN5CCOC[C@H]5C4)nc3)n2)s1`, for which the IC50 was in the range of 100 to 1000 nM.

Turning to `COc1cc(N2CCN(CCS(C)(=O)=O)CC2)c(C)cc1Nc1nccc(-c2sc(C)nc2-c2cccc(NS(=O)(=O)c3c(F)cccc3F)c2)n1`, the half-maximal inhibitory concentration (IC50) was below 100 nM.

In turn, `CCNc1nc(-c2cccc(NS(=O)(=O)c3c(F)cccc3F)c2)c(-c2ccnc(Nc3ccc(N4CCOCC4)nc3)n2)s1` gave an IC50 of 100 to 1000 nM.

Regarding `COc1cc(N2CCN(CCS(C)(=O)=O)CC2)c(C)cc1Nc1nccc(-c2sc(CC(C)C)nc2-c2cccc(NS(=O)(=O)c3c(F)cccc3F)c2)n1`, the IC50 was below 100 nM.

In turn, `COc1cc(N2CCN(CCS(C)(=O)=O)CC2)c(C)cc1Nc1nccc(-c2sc(C(C)C)nc2-c2cccc(NS(=O)(=O)c3c(F)cccc3F)c2)n1` had an IC50 below 100 nM.

`COc1ccc(S(C)(=O)=O)cc1Nc1nccc(-c2sc(C(C)C)nc2-c2cccc(NS(=O)(=O)c3c(F)cccc3F)n2)n1`: the half-inhibitory concentration (IC50) lay in the range of 100 to 1000 nM.

For the compound `CC(C)c1nc(-c2cccc(NS(=O)(=O)c3ccccc3)c2)c(-c2ccnc(Nc3ccc(CC4CCN(CCS(C)(=O)=O)CC4)c(F)c3)n2)s1`, the IC50 lay within 100 to 1000 nM.

The compound `CC(C)c1nc(-c2cccc(NS(=O)(=O)c3c(F)cccc3F)c2)c(-c2ccnc(Nc3ccc(N4CCOCC4)c(C(=O)O)c3)n2)s1` had an IC50 of 100 to 1000 nM.

In turn, `CC(C)c1nc(-c2cccc(NS(=O)(=O)c3cccnc3)c2)c(-c2ccnc(Nc3ccc(N4CCOCC4)nc3)n2)s1` had an IC50 of 100 to 1000 nM.

In the case of `CCNc1nc(-c2ccc(F)c(NS(=O)(=O)c3c(F)cccc3F)c2)c(-c2ccnc(Nc3ccc(N4CCOCC4)nc3)n2)s1`, the IC50 fell in the range of 100 to 1000 nM.

In turn, `CC(C)c1nc(-c2cccc(NS(=O)(=O)c3c(F)cccc3F)c2)c(-c2ccnc(Nc3ccc(OC4CCN(CCS(C)(=O)=O)CC4)c(F)c3)n2)s1` returned an IC50 of 100 to 1000 nM.

Turning to `CS(=O)(=O)CCN1CCN(c2ccc(Nc3nccc(-c4oc(N5CCCC5)nc4-c4cccc(NS(=O)(=O)c5c(F)cccc5F)c4F)n3)cc2F)CC1`, the IC50 fell in the range of 100 to 1000 nM.

`CC(=O)N1CCN(c2ccc(Nc3nccc(-c4sc(C(C)C)nc4-c4cccc(NS(=O)(=O)c5cn(C)cn5)c4)n3)cn2)CC1`: the half-maximal inhibitory concentration (IC50) was below 100 nM.

The compound `CC(C)c1nc(-c2ccc(F)c(NS(=O)(=O)c3c(F)cccc3F)c2)c(-c2ccnc(Nc3cccc(CCS(N)(=O)=O)c3)n2)s1` gave an IC50 of 100 to 1000 nM.

`COc1ccc(Nc2nccc(-c3sc(C(C)C)nc3-c3cccc(NS(=O)(=O)Cc4ccccc4)c3)n2)cc1N1CCN(CCS(C)(=O)=O)CC1`: the IC50 is below 100 nM.

The compound `COc1cc(N2CCN(CCS(C)(=O)=O)CC2)c(C)cc1Nc1nccc(-c2scnc2-c2cccc(NS(=O)(=O)c3c(F)cccc3F)c2)n1` displayed an IC50 below 100 nM.

As to `CCc1nc(-c2ccc(F)c(NS(=O)(=O)c3ccccc3)c2)c(-c2ccnc(Nc3ccc(N4CCN(C(C)C)CC4)cc3OC)n2)s1`, the IC50 lay in the range of 100 to 1000 nM.

`CC(C)c1nc(-c2ccc(F)c(NS(=O)(=O)c3c(F)cccc3F)c2)c(-c2ccnc(Nc3ccnc(N4CCOCC4)c3)n2)s1` returned an IC50 of 100 to 1000 nM.

For the compound `CCc1nc(-c2cccc(CNS(=O)(=O)c3ccccc3)c2)c(-c2ccnc(Nc3ccc(N4CCN(C(C)=O)CC4)nc3)n2)s1`, the IC50 is 100 to 1000 nM.

The compound `Cc1cc(N2CCC(N3CCCCC3)CC2)ccc1Nc1nccc(-c2sc(C(C)C)nc2-c2cccc(NS(=O)(=O)c3c(F)cccc3F)c2)n1` had an IC50 below 100 nM.

With `Nc1nc(-c2cccc(NS(=O)(=O)c3c(F)cccc3F)c2)c(-c2ccnc(Nc3ccc(N4CCOCC4)nc3)n2)s1`, the IC50 was 100 to 1000 nM.

As for `CCNc1nc(-c2cccc(NS(=O)(=O)c3c(F)cccc3F)c2)c(-c2ccnc(Nc3cc(C)c(N4CCN(CCS(C)(=O)=O)CC4)cc3OC)n2)s1`, the IC50 was below 100 nM.

`CC(C)c1nc(-c2cccc(NS(=O)(=O)c3c(F)cccc3F)c2)c(-c2ccnc(Nc3ccc(N4CCCNCC4)nc3)n2)s1`: the IC50 is below 100 nM.

`COc1cc(N2CCN(CCS(C)(=O)=O)CC2)c(C)cc1Nc1nccc(-c2sc(C3CC3)nc2-c2cccc(NS(=O)(=O)c3c(F)cccc3F)c2)n1` registered a concentration for half-maximal inhibition (IC50) of 100 to 1000 nM.

With `CN(C)c1nc(-c2ccc(F)c(NS(=O)(=O)c3c(F)cccc3F)c2)c(-c2ccnc(Nc3ccc(N4CCN(S(C)(=O)=O)CC4)nc3)n2)s1`, the IC50 was 100 to 1000 nM.

`CN1CCN(c2nc(-c3ccc(F)c(NS(=O)(=O)c4c(F)cccc4F)c3)c(-c3ccnc(Nc4ccc(N5CCOCC5)nc4)n3)s2)CC1` yielded an IC50 of 100 to 1000 nM.

Compound `CC(=O)N1CCN(c2ccc(Nc3nccc(-c4sc(C(C)C)nc4-c4cccc(NS(=O)(=O)c5cccc(F)c5)c4)n3)cn2)CC1` displayed an IC50 of 100 to 1000 nM.

Take `CC(C)c1nc(-c2cccc(NS(=O)(=O)c3c(F)cccc3F)c2)c(-c2ccnc(Nc3ccc(N4CCN(CCS(C)(=O)=O)CC4)c(F)c3)n2)s1`: the IC50 lay within 100 to 1000 nM.

On to `O=S(=O)(Nc1cccc(-c2nc(N3CCCC3)sc2-c2ccnc(Nc3ccc(N4CCN(CCF)CC4)c(F)c3)n2)c1)c1c(F)cccc1F`, for which the 50% inhibitory concentration (IC50) is below 100 nM.

Compound `Nc1nc(-c2ccc(F)c(NS(=O)(=O)c3c(F)cccc3F)c2)c(-c2ccnc(Nc3ccc(N4CCOCC4)nc3)n2)s1` registered an IC50 of 100 to 1000 nM.

`O=S(=O)(Nc1cc(-c2nc(N3CCCC3)sc2-c2ccnc(Nc3ccc(N4CCOCC4)nc3)n2)ccc1F)c1c(F)cccc1F` gave an IC50 of 100 to 1000 nM.

As for `CC(C)c1nc(-c2cc(F)cc(NS(=O)(=O)c3c(F)cccc3F)c2)c(-c2ccnc(Nc3ccc(N4CCOCC4)nc3)n2)s1`, the IC50 fell in the range of 100 to 1000 nM.

In turn, `COc1ccc(Nc2nccc(-c3sc(C(C)C)nc3-c3cccc(NS(=O)(=O)c4ccccc4)c3)n2)cc1N1CCN(CCC#N)CC1` registered an IC50 below 100 nM.

With `CCOc1ccc(Nc2nccc(-c3sc(C(C)C)nc3-c3ccc(F)c(NS(=O)(=O)c4c(F)cccc4F)c3)n2)cc1N1CCN(CCF)CC1`, the IC50 is below 100 nM.

In turn, `CC(C)c1nc(-c2cccc(NS(=O)(=O)c3c(F)cccc3F)c2)c(-c2ccnc(Nc3ccc(N4CCOCC4)c(F)c3)n2)o1` registered an IC50 of 100 to 1000 nM.

`CC(=O)N1CCN(c2ccc(Nc3nccc(-c4sc(C(C)C)nc4-c4cccc(NS(=O)(=O)c5ccccc5F)c4)n3)cn2)CC1` came in with an IC50 below 100 nM.

In turn, `O=S(=O)(Nc1cccc(-c2ncsc2-c2ccnc(Nc3ccc(N4CCOCC4)nc3)n2)c1)c1c(F)cccc1F` yielded a 50% inhibitory concentration (IC50) of 100 to 1000 nM.

`CC(C)c1nc(-c2ccc(F)c(NS(=O)(=O)c3c(F)cccc3F)c2)c(-c2ccnc(Nc3ccc(N4CCN(CCF)CC4)c(F)c3)n2)s1`: the IC50 lay within 100 to 1000 nM.

As to `CCNc1nc(-c2cccc(NS(=O)(=O)c3ccccc3)c2)c(-c2ccnc(Nc3ccc(OCCN4CCCC4)c(F)c3)n2)s1`, the IC50 is below 100 nM.

In turn, `COc1cc(N2CCN(CCS(C)(=O)=O)CC2)c(C)cc1Nc1nccc(-c2sc(N)nc2-c2cccc(NS(=O)(=O)c3c(F)cccc3F)c2)n1` displayed an IC50 of 100 to 1000 nM.
